Paper PMC4519872, “Characterization of the Interaction between Gallic Acid and Lysozyme by Molecular Dynamics Simulation and Optical Spectroscopy” (International Journal of Molecular Sciences, 2015)

Target: T1, lysozyme (LYS) (Gallus gallus, UniProt P00698)
T1 construct: gene LYZ; commercial lysozyme, Sigma-Aldrich, >=18,000 U; single chain of 129 residues; docking model PDB 1GWD
Test: intrinsic fluorescence quenching titration
Type: binding
Conditions: 298 K; Tris-HCl pH 7.43; excitation 282 nm; inner-filter corrected; double-log
From the text: intrinsic fluorescence quenching titration on lysozyme (LYS)

T1 sequence (P00698 19-147): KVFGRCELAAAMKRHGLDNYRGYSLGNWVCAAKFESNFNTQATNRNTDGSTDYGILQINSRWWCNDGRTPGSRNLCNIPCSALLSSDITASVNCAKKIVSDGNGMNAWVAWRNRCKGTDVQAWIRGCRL

## O=C(O)c1cc(O)c(O)c(O)c1 [GA, 3,4,5-trihydroxybenzoic acid]
  K: 393000 L/mol
